Reference: patent US9696306B2, “Methods of reducing levels of tau” (The Trustees of Columbia University in the City of New York, priority 2011, dated 2017)

Tests used:
Format in all cases: cell-based, mouse
sAPPβ = experiment: Immunoprecipitation/Western blot of secreted sAPPβ from conditioned medium of Tg2576 ES cell derived neurons
Description: (§1) The reliable detection of proteolytic derivatives of APP, including AP, is critical for a physiologically relevant cell based AD model. It was established that ES cell-derived pyramidal neurons express the major proteolytic enzymes mediating APP processing, β-site APP cleaving enzyme (BACE1) and presenilin 1 (PS1) (FIG. 2a). Endogenous APP, BACE1 and PS1 were abundantly detected in ES cell-derived pyramidal neurons at DIV 7, 14, 21. APP and BACE1 were not detected in ES cells, but PS1 was detectable consistent with it's described role in development (Wong, P. C. et al. Nature 387, 288-292 (1997)). […] In Tg2576 ES cell derived neurons, APP cleavage products were readily detectable. C-terminal APP fragments (CTFs) were detected in the neuronal lysate by Western blot analysis (FIG. 2b). Both human β- and α-secretase-derived secreted soluble APP (sAPPβ and sAPPα, respectively) were detected using immunoprecipitation of conditioned medium with sβsw and Aβ levels were detected in conditioned media using a human Aβ specific ELISA (FIG. 2b-e). […] Identical results were seen when neurons were infected with an APPsw Lenti virus and APP processing was analyzed (FIG. 6a-c). […]
(§2) Day 12-30 neurons were infected with a lentivirus carrying the Swedish variant of human APP (pLenti6/hAPPsw). […] Samples were separated using the NuPAGE gel system and Aβ peptides detected by quantitative Western blotting with 6E10. […]

Aβ40 = Aβ40 detection by human specific ELISA in conditioned medium of Tg2576 mES cell derived neurons
Description: (§3) The reliable detection of proteolytic derivatives of APP, including AP, is critical for a physiologically relevant cell based AD model. It was established that ES cell-derived pyramidal neurons express the major proteolytic enzymes mediating APP processing, β-site APP cleaving enzyme (BACE1) and presenilin 1 (PS1) (FIG. 2a). Endogenous APP, BACE1 and PS1 were abundantly detected in ES cell-derived pyramidal neurons at DIV 7, 14, 21. APP and BACE1 were not detected in ES cells, but PS1 was detectable consistent with it's described role in development (Wong, P. C. et al. Nature 387, 288-292 (1997)). To achieve robust and reproducible neuronal expression of human APP, ES cells from the inner cell mass of blastocysts were isolated from a well characterized mouse model of AD, Tg2576. Tg2576 mice express human APP, harboring the Swedish mutation (APPsw) under the control of hamster PrP promoter (Hsiao, K. et al. Science 274, 99-102 (1996)). […] In Tg2576 ES cell derived neurons, APP cleavage products were readily detectable. C-terminal APP fragments (CTFs) were detected in the neuronal lysate by Western blot analysis (FIG. 2b). Both human β- and α-secretase-derived secreted soluble APP (sAPPβ and sAPPα, respectively) were detected using immunoprecipitation of conditioned medium with sβsw and Aβ levels were detected in conditioned media using a human Aβ specific ELISA (FIG. 2b-e). […] Consistent with previous studies in cell models and mouse brain, CTFs resulting from APP cleavage, accumulated in response to γ-secretase inhibitor treatment (FIG. 2b). Identical results were seen when neurons were infected with an APPsw Lenti virus and APP processing was analyzed (FIG. 6a-c). […] Thus, these neurons are suitable for lentiviral mediated genetic manipulation studies.
(§4) To accommodate high-throughput screening, Aβ detection assays using the Tg2576 mES cell derived neurons were miniaturized for a 96 well platform. […] It was determined that the optimal cell density of 1.5×10^5 cells/cm^2 maximized the cell viability signal. […]
(§5) Day 12-30 neurons were infected with a lentivirus carrying the Swedish variant of human APP (pLenti6/hAPPsw). […] The levels of Aβ42 and Aβ40 in conditioned media were determined using sandwich ELISA (Invitrogen) according to the manufacturer's protocol. Total Aβ was detected by immunoprecipitating conditioned medium with 6E10 (Covance) or 7N22 (Invitrogen) antibodies overnight at 4° C. Samples were separated using the NuPAGE gel system and Aβ peptides detected by quantitative Western blotting with 6E10. Full-length APP was detected by Western blot analysis using 6E10 (Covance) or polyclonal antibody against the C-terminus of APP (APP-Ctmaxi) (Okada, H., et al. FASEB J. 24, 2783-94 (2010)). […]

Aβ42 = Aβ42 detection by human specific ELISA in conditioned medium of Tg2576 mES cell derived neurons
Description: as §3, §4, §5

sAPPα = experiment: Immunoprecipitation/Western blot of secreted sAPPα from conditioned medium of Tg2576 ES cell derived neurons
Description: as §1, §2

APP-CTF = experiment: Western blot of C-terminal APP fragments (CTFs) in lysate of Tg2576 ES cell derived neurons; conditions: neuronal lysate
Description: as §1, §2

[1] = Tg2576 ES cell derived neurons, conditioned medium
[2] = optimized 96 well platform, 24 hours

## C[C@H](NC(=O)Cc1cc(F)cc(F)c1)C(=O)N[C@H]1N=C(c2ccccc2)c2ccccc2N(C)C1=O [Compound E]
sAPPβ
  secretion of sAPPβ: without affecting
Aβ40; [1]
  secretion of Aβ40: inhibited
Aβ40; [2]
  IC50: 0.2 nM
Aβ42; [1]
  secretion of Aβ42: inhibited
Aβ42; [2]
  IC50: 0.2 nM
sAPPα
  level of sAPPα: without affecting
APP-CTF
  CTFs resulting from APP cleavage: accumulated
